# Test results reported in ChEMBL document CHEMBL1132922, “Corticotropin releasing factor (CRF) receptor modulators: progress and opportunities for new therapeutic agents” (J Med Chem, 2000).
# Key:
# [1] = biological target: T1, Corticotropin releasing factor receptor (Rattus norvegicus, UniProt P47866+P35353); assay: Compound was tested for the binding affinity to rat corticotropin releasing factor receptor; format: protein assay
# [2] = biological target: T1, Corticotropin releasing factor receptor; assay: Inhibition of binding of the radioligand, [125 I-Tyr0]-CRF to rat cerebral cortex membrane; format: tissue-based
# Rattus norvegicus [3] = species on record: Rattus norvegicus; assay: 50% inhibitory concentration to antagonize Corticotropin releasing factor (CRF) stimulated adenylate cyclase; format: functional
# HEK293 = assay: Inhibition of h- CRF mediated increase in adenylate cyclase activity was evaluated in HEK293 cells; format: functional, cell-based; details: Homo sapiens
# [4] = biological target: T2, Corticotropin-releasing factor receptor 1 (Homo sapiens, UniProt P34998); assay: Compound was tested for the binding affinity to human corticotropin releasing factor 1 (hCRF1) receptors
# T2 sequence (P34998 whole entry): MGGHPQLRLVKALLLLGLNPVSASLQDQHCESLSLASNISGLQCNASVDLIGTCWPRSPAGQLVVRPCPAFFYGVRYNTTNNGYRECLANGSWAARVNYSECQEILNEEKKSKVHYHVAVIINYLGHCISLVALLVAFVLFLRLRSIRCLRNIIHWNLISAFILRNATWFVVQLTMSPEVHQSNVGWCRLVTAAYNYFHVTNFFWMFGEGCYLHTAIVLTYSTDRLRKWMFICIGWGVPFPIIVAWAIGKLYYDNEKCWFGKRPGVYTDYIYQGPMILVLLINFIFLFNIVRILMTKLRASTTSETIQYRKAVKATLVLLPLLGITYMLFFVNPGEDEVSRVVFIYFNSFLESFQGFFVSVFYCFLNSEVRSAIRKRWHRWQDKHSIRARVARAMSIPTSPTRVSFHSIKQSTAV
# Rattus norvegicus [5] = assay: Percent reduction in latency time in the dark compartment at 20 mg/kg was reported; format: functional
# Rattus norvegicus [6] = assay: Minimum effective dose in rat […] anxiety test when administered perorally; format: functional; details: po, read-out: MED
# Rattus norvegicus [7] = species on record: Rattus norvegicus; assay: Oral activity was evaluated in an rat situational anxiety test; format: functional
# [8] = biological target: T1, Corticotropin releasing factor receptor; assay: Compound was tested for the inhibition of binding of the radioligand, [125 I-Tyr0]-CRF to rat cerebral cortex membrane; format: tissue-based
# Rattus norvegicus [9] = species on record: Rattus norvegicus; assay: effective concentration used to stimulate the secretion of adenocorticotropic hormone(ACTH) in primary cultures of rat pituitary cells; format: functional, cell-based; details: Pituitary gland cell
# [10] = biological target: T2, Corticotropin-releasing factor receptor 1; assay: Activity of peptidic agonists on corticotropin releasing factor receptor using agonist-stimulated adenylate cyclase assay; format: functional
# [11] = biological target: T2, Corticotropin-releasing factor receptor 1; assay: Binding affinity of the receptor corticotropin releasing factor receptor with peptidic agonists
# [12] = biological target: T3, Corticotropin-releasing factor receptor 2 (Homo sapiens, UniProt Q13324); assay: Activity of peptidic agonists on h-CRF2-alpha receptor using agonist-stimulated adenylate cyclase assay; format: functional
# T3 sequence (Q13324 whole entry): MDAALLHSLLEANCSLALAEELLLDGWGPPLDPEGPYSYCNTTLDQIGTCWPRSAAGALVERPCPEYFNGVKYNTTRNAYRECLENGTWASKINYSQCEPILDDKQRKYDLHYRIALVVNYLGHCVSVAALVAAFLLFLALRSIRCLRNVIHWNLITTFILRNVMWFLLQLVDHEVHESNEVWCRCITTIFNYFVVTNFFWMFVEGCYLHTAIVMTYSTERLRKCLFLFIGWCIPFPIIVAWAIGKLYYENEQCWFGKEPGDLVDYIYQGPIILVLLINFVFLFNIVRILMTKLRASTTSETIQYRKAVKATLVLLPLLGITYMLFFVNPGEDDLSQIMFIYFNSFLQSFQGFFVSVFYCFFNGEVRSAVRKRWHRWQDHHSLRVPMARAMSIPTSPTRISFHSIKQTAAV
# [13] = biological target: T3, Corticotropin-releasing factor receptor 2; assay: Binding affinity of the receptor h-CRF2-alpha with peptidic agonists
# [14] = Inhibition of ovine CRF stimulated adenylate cyclase assay in CHO-p5 cells; format: functional, cell-based; details: Ovis aries
structure (smiles),measurement,setting,value
CCCCC(CC)n1c(C)nc2c(-c3ccc(Cl)cc3Cl)ncnc21 (centres undefined),Ki,[1],8.8 nM
CC(=O)Sc1c(C)n(C)n(-c2ccccc2)c1=O,IC50,[2],13700 nM
same,IC50,Rattus norvegicus [3],2900 nM
CCC(CC)Nc1cc(C)nc2c(-c3ccc(OC)cc3C)c(C)nn12,IC50,HEK293,10000 nM
same,Ki,[4],1 nM
same,Reduction,Rattus norvegicus [5],57%
same,minimal effective dose,Rattus norvegicus [6],1 mg/kg
same,ED50,Rattus norvegicus [7],1 mg/kg
CCN(c1nc(C)cc(N2CC=C(c3cccc(F)c3)CC2)n1)c1ccc(C(C)C)cc1SC,IC50,[8],12.7 nM
CC[C@H](C)[C@H](NC(=O)[C@@H](NC(=O)[C@H](CCC(=O)O)NC(=O)[C@H](CCSC)NC(=O)[C@H](CC(C)C)NC(=O)[C@H](CCCCN)NC(=O)[C@H](CCCN=C(N)N)NC(=O)[C@H](CC(N)=O)NC(=O)[C@H](CO)NC(=O)[C@H](Cc1c[nH]cn1)NC(=O)[C@H](C)NC(=O)[C@H](CCC(N)=O)NC(=O)[C@H](CCC(N)=O)NC(=O)[C@H](C)NC(=O)[C@H](CC(C)C)NC(=O)[C@H](CCC(N)=O)NC(=O)[C@H](CCC(=O)O)NC(=O)[C@H](C)NC(=O)[C@H](CCCN=C(N)N)NC(=O)[C@H](C)NC(=O)[C@H](CCSC)NC(=O)[C@H](CCC(=O)O)NC(=O)[C@H](CC(C)C)NC(=O)[C@@H](NC(=O)[C@H](CCC(=O)O)NC(=O)[C@H](CCCN=C(N)N)NC(=O)[C@H](CC(C)C)NC(=O)[C@H](CC(C)C)NC(=O)[C@H](Cc1c[nH]cn1)NC(=O)[C@H](Cc1ccccc1)NC(=O)[C@@H](NC(=O)[C@H](CC(C)C)NC(=O)[C@H](CC(=O)O)NC(=O)[C@H](CC(C)C)NC(=O)[C@H](CO)NC(=O)[C@@H](NC(=O)[C@@H]1CCCN1C(=O)[C@@H]1CCCN1C(=O)[C@H](CCC(=O)O)NC(=O)[C@H](CCC(=O)O)NC(=O)[C@@H](N)CO)[C@@H](C)CC)[C@@H](C)O)C(C)C)[C@@H](C)CC)C(N)=O,EC50,Rattus norvegicus [9],0.2 nM
CC[C@H](C)[C@H](NC(=O)[C@H](CC(=O)O)NC(=O)[C@H](CC(C)C)NC(=O)[C@H](CC(C)C)NC(=O)[C@H](CCCCN)NC(=O)[C@H](CCCN=C(N)N)NC(=O)[C@H](CC(N)=O)NC(=O)[C@H](CO)NC(=O)[C@H](Cc1cnc[nH]1)NC(=O)[C@H](C)NC(=O)[C@H](CCC(N)=O)NC(=O)[C@H](CCC(N)=O)NC(=O)[C@H](C)NC(=O)[C@H](CC(C)C)NC(=O)[C@H](CCC(N)=O)NC(=O)[C@H](CC(=O)O)NC(=O)[C@H](C)NC(=O)[C@H](CCCCN)NC(=O)[C@@H](NC(=O)[C@H](CCSC)NC(=O)[C@H](CCC(=O)O)NC(=O)[C@H](CC(C)C)NC(=O)[C@@H](NC(=O)[C@H](CCC(=O)O)NC(=O)[C@H](CCCN=C(N)N)NC(=O)[C@H](CC(C)C)NC(=O)[C@H](CC(C)C)NC(=O)[C@H](Cc1cnc[nH]1)NC(=O)[C@H](Cc1ccccc1)NC(=O)[C@@H](NC(=O)[C@H](CC(C)C)NC(=O)[C@H](CC(=O)O)NC(=O)[C@H](CC(C)C)NC(=O)[C@H](CO)NC(=O)[C@@H](NC(=O)[C@@H]1CCCN1C(=O)[C@@H]1CCCN1C(=O)[C@H](CCC(=O)O)NC(=O)[C@H](CCC(N)=O)NC(=O)[C@@H](N)CO)[C@@H](C)CC)[C@@H](C)O)C(C)C)[C@@H](C)O)C(=O)N[C@@H](C)C(N)=O,EC50,[10],9.7 nM
same,Ki,[11],7.16 nM
same,EC50,[12],61.9 nM
same,Ki,[13],86.4 nM
CCN(c1nc(C)cc(N2CCC=C(c3ccccc3C)C2)n1)c1ccc(C(C)C)cc1SC,IC50,[8],10 nM
CCCN(c1nc(-c2ccc(Cl)cc2Cl)c(C)s1)c1cccc2ncccc12,IC50,[8],80 nM
CCCCN(CC)c1cc(C)nc2c(-c3ccc(Cl)cc3Cl)c(C)nn12,IC50,[14],357 nM
Cc1c(SSc2c(C)n(C)n(-c3ccc4ccccc4c3)c2=O)c(=O)n(-c2ccc3ccccc3c2)n1C,IC50,[2],3300 nM
same,IC50,Rattus norvegicus [3],1000 nM
